SMILES strings stand for the structures. pIC50: −log10 of the molar value. Read-outs that look alike come from different tables or passages of the source.

The assay has as its target T1, S-nitrosoglutathione reductase (GSNOR) (Homo sapiens, UniProt P11766).
T1 construct: made in house; host or cells: E. coli
The experiment in a line: GSNOR assay (inhibition of GSNOR activity, NADH absorbance at 340 nm). It is filed as biochemical. The gist of the method:
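Recombinant GSNOR purified from E. coli, tag removed. Final conditions: 100 mM NaPO4 pH 7.4, 0.240 mM GSNO, 0.300 mM NADH, 0.5 μg/mL enzyme, 1% DMSO; NADH loss followed as 340 nm absorbance change over 3 min at 25 °C. Compounds 100–0.003 μM, triplicate; IC50 by curve analysis.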

[1] abbreviates: GSNOR inhibitor activity, Tables 1-6, read-out: IC50 range.
Where [2] appears, read: Table 7, GSNOR inhibition, IC50 range class a/b/c, read-out: IC50.
The mark [3] stands for this setting: Table 8, GSNOR inhibition, IC50 range class a/b/c, read-out: IC50.

T1 sequence (P11766 whole entry): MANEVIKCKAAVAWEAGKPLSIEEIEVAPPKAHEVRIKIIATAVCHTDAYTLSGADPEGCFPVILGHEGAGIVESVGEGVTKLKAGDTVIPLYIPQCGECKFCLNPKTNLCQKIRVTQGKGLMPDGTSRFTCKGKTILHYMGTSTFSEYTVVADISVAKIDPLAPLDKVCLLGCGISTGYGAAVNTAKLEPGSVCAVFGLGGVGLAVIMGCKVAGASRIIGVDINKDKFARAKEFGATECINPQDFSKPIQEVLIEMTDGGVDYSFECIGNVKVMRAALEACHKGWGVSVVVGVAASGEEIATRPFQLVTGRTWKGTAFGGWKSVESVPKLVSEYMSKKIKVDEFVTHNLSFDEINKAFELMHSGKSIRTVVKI

Regarding `O=C(O)c1ccc(NCc2ccc(O)c(F)c2)c(F)c1` [VI-31, 3-fluoro-4-((3-fluoro-4-hydroxybenzyl)amino)benzoic acid], the pIC50 under setting [1] is 5.00 to 6.00.
For the compound `Cc1cc(C(=O)O)ccc1-c1ccc2cc(O)ccc2c1` [III-37, 4-(6-hydroxynaphthalen-2-yl)-3-methylbenzoic acid], under setting [1], the pIC50 was more than 7.00.
For the compound `CC(C)n1c(-c2ccc(O)cc2)ccc1-c1ccc(C(=O)O)cc1` [VII-32, 4-(5-(4-hydroxyphenyl)-1-isopropyl-1H-pyrrol-2-yl)benzoic acid], the pIC50 under setting [2] is more than 7.00.
For `O=C(O)c1ccc(-c2nc3ccc(O)cc3nc2C(F)(F)F)c(F)c1` [II-26, 3-fluoro-4-(6-hydroxy-3-(trifluoromethyl)quinoxalin-2-yl)benzoic acid], the pIC50 under setting [1] is more than 7.00.
Same read-out and setting: the result for `O=C(O)c1ccc(NCc2ccc(O)cc2F)c(F)c1` [VI-33, 3-fluoro-4-((2-fluoro-4-hydroxybenzyl)amino)benzoic acid] reads 5.00 to 6.00; that for `O=C(O)C1CC=C(c2nc3ccc(O)cc3nc2C(F)(F)F)CC1` (centres unmarked) [II-12], more than 7.00; that for `O=C(O)c1ccc(Oc2coc3cc(O)ccc3c2=O)cc1` [Compound V-12, 4-(7-hydroxy-4-oxo-4H-chromen-3-yloxy)benzoic acid], 5.00 to 6.00.
With `COCCn1c(-c2ccc(O)cc2)ccc1-c1ccc(C(=O)O)cc1` [VII-33, 4-(5-(4-hydroxyphenyl)-1-(2-methoxyethyl)-1H-pyrrol-2-yl)benzoic acid], under setting [2], the pIC50 was 6.00 to 7.00.
For the compound `O=C(O)c1ccc(-c2ccc(-c3ccc(O)cc3F)s2)cc1` [VII-8, 4-(5-(2-fluoro-4-hydroxyphenyl)thiophen-2-yl)benzoic acid], the pIC50 under setting [2] was 6.00 to 7.00.
Turning to `O=C(O)C1CCC(c2ccc3cc(O)ccc3n2)CC1` (centres unmarked) [Compound I-6], the pIC50 under setting [1] was 6.00 to 7.00.
As to `O=C(O)c1ccc(-c2csc(-c3ccc(O)cc3)n2)s1` [VII-9, 5-(2-(4-hydroxyphenyl)thiazol-4-yl)thiophene-2-carboxylic acid], the pIC50 under setting [2] is more than 7.00.
For the compound `O=C(O)c1ccc(-c2ncc3cc(O)ccc3n2)c(Cl)c1` [II-3], under setting [1], the pIC50 was more than 7.00.
On to `O=C(O)c1ccc(-c2cc(F)c3cc(O)ccc3n2)c(Cl)c1` [Compound I-37, 3-chloro-4-(4-fluoro-6-hydroxyquinolin-2-yl)benzoic acid], for which the pIC50 under setting [1] is more than 7.00.
For the compound `O=C(O)c1ccc(-c2ccc(-c3ccc(O)cc3)s2)s1` [VII-12, 5′-(4-hydroxyphenyl)-2,2′-bithiophene-5-carboxylic acid], under setting [2], the pIC50 was 6.00 to 7.00.
As to `O=C(O)c1ccc(NCc2ccc(O)c(F)c2F)c(F)c1` [VI-32, 4-((2,3-difluoro-4-hydroxybenzyl)amino)-3-fluorobenzoic acid], under setting [1], the pIC50 is 6.00 to 7.00.
Still for that read-out and setting: to `O=c1c(-c2ccc(O)c([N+](=O)[O-])c2)c(C(F)(F)F)oc2cc(O)ccc12` [IV-45, 7-hydroxy-3-(4-hydroxy-3-nitrophenyl)-2-(trifluoromethyl)-4H-chromen-4-one] belongs more than 7.00; to `Cc1cc2cc(O)ccc2nc1-c1ccc(-c2nnn[nH]2)cc1` [Compound I-2], more than 7.00.
Still for that read-out and setting: to `O=C(O)c1ccc(-c2ccc3c(F)c(O)ccc3n2)c(Cl)c1` [Compound I-57] belongs more than 7.00.
With `O=C(O)c1ccc(-c2cc(=O)c3cc(O)ccc3[nH]2)c(Cl)c1` [VIII-9, 3-chloro-4-(6-hydroxy-4-oxo-1,4-dihydroquinolin-2-yl)benzoic acid], the pIC50 under setting [3] was 5.00 to 6.00.
On to `O=C(O)c1ccc(-c2csc(-c3ccc(O)cc3)n2)cc1` [VII-2, 4-(2-(4-hydroxyphenyl)thiazol-4-yl)benzoic acid], for which the pIC50 under setting [2] is 6.00 to 7.00.
The same measure, in the same setting: the result for `CC(C)CCn1c(-c2ccc(O)cc2)ccc1-c1ccc(C(=O)O)cc1` [VII-28, 4-(5-(4-hydroxyphenyl)-1-isopentyl-1H-pyrrol-2-yl)benzoic acid] reads more than 7.00.
As to `N#Cc1cc(C(=O)O)ccc1-c1ccc2cc(O)ccc2c1` [III-6], the pIC50 under setting [1] was more than 7.00.
Consider `CSc1nc2cc(O)ccc2c(=O)n1-c1ccc(C(=O)O)cc1` [VIII-1, 4-(7-hydroxy-2-(methylthio)-4-oxoquinazolin-3(4H)-yl)benzoic acid], for which the pIC50 under setting [3] was 5.00 to 6.00.
Turning to `COc1cc(C(=O)O)ccc1-c1ncc2cc(O)ccc2n1` [II-5], the pIC50 under setting [1] was more than 7.00.
Turning to `O=C(O)c1ccc(-c2c(C(F)(F)F)oc3cc(O)ccc3c2=O)c(Cl)c1` [IV-15], the pIC50 under setting [1] is more than 7.00.
On the same count and under the same terms, the result for `O=c1[nH]c(-c2ccc(-c3c(C(F)(F)F)oc4cc(O)ccc4c3=O)c(Cl)c2)no1` [IV-40] reads more than 7.00; that for `O=c1c(-c2ccc(-c3nnn[nH]3)c(Cl)c2)c(C(F)(F)F)oc2cc(O)ccc12` [IV-42], more than 7.00.
The same measure, in the same setting: to `O=C(O)c1ccc(CC(=O)c2ccc(O)cc2)cc1` [VI-11, 4-(2-(4-hydroxyphenyl)-2-oxoethyl)benzoic acid] belongs 6.00 to 7.00; to `O=C(O)c1ccc(-c2cc3ccc(O)cc3cn2)c(F)c1` [II-24, 3-fluoro-4-(7-hydroxyisoquinolin-3-yl)benzoic acid], more than 7.00; to `O=C(O)c1ccc(-c2ccc3cc(O)ccc3n2)cc1Cl` [Compound I-9], 5.00 to 6.00.
`O=C(O)c1ccc(-c2cc3ccc(O)cc3cc2F)cc1` [III-23, 4-(3-fluoro-6-hydroxynaphthalen-2-yl)benzoic acid]: the pIC50 under setting [1] was more than 7.00.
Consider `O=C(O)c1ccc(Oc2c(-c3ccccc3)oc3cc(O)ccc3c2=O)cc1` [Compound V-2, 4-((7-hydroxy-4-oxo-2-phenyl-4H-chromen-3-yl)oxy)benzoic acid], for which the pIC50 under setting [1] was 5.00 to 6.00.
Still for that read-out and setting: the result for `O=C(O)c1csc(-c2c(C(F)(F)F)oc3cc(O)ccc3c2=O)c1` [IV-35] reads 6.00 to 7.00; that for `O=C(O)c1ccc(-c2cc3ccc(O)cc3cc2F)c(Cl)c1` [III-21, 3-chloro-4-(3-fluoro-6-hydroxynaphthalen-2-yl)benzoic acid], more than 7.00.
Same read-out and setting: to `O=c1c(C2CCC(c3nn[nH]n3)CC2)c(C(F)(F)F)oc2cc(O)ccc12` (centres unmarked) [IV-36] belongs more than 7.00; to `O=C(O)C1CCN(c2nc3ccc(O)cc3cc2C(F)(F)F)CC1` [Compound I-41], more than 7.00.
`O=C(O)c1ccc(-c2ccc(-c3ccc(O)cc3)s2)cc1` [VII-4, 4-(5-(4-hydroxyphenyl)thiophen-2-yl)benzoic acid]: the pIC50 under setting [2] was 6.00 to 7.00.
For the compound `O=C(O)c1ccc(Sc2c(C(F)(F)F)oc3cc(O)ccc3c2=O)cc1` [Compound V-11, 4-(7-hydroxy-4-oxo-2-(trifluoromethyl)-4H-chromen-3-ylthio)benzoic acid], the negative logarithm of the IC50 (pIC50) under setting [1] was 5.00 to 6.00.
Same read-out and setting: to `O=c1nc(-c2ccc(-c3ccc4cc(O)ccc4n3)cc2)[nH]s1` [Compound I-29] belongs 6.00 to 7.00.
Consider `O=C(O)c1ccc(-c2nc(-c3ccc(O)cc3)cs2)cc1` [VII-1, 4-(4-(4-hydroxyphenyl)thiazol-2-yl)benzoic acid], for which the pIC50 under setting [2] is 5.00 to 6.00.
Take `O=C(O)[C@H]1CC[C@@H](c2nc3ccc(O)cc3nc2C(F)(F)F)CC1` [II-28, (cis)-4-(6-hydroxy-3-(trifluoromethyl)quinoxalin-2-yl)cyclohexanecarboxylic acid]: the pIC50 under setting [1] was 5.00 to 6.00.
On to `O=C(O)c1ccc(-c2ccc3cc(O)ccc3c2)nc1` [III-7], for which, under setting [1], the pIC50 is 6.00 to 7.00.
For the compound `O=C(O)c1ccc(Oc2c(C(F)(F)F)oc3cc(O)ccc3c2=S)cc1` [Compound V-4, 4-((7-hydroxy-4-thioxo-2-(trifluoromethyl)-4H-chromen-3-yl)oxy)benzoic acid], the pIC50 under setting [1] was 6.00 to 7.00.
Take `COc1cc(-c2ccc3cc(O)ccc3n2)ccc1C(=O)O` [Compound I-59, 4-(6-hydroxyquinolin-2-yl)-2-methoxybenzoic acid]: the pIC50 under setting [1] is 6.00 to 7.00.
Still for that read-out and setting: the result for `O=C(O)c1ccc(-c2cc(F)c3cc(O)ccc3c2)cc1` [III-39, 4-(4-fluoro-6-hydroxynaphthalen-2-yl)benzoic acid] reads more than 7.00.
The same measure, in the same setting: to `Oc1ccc2cc(-c3ccc(-c4nnn[nH]4)cc3)ccc2c1` [III-18] belongs more than 7.00; to `O=C(O)c1ccc(-c2ccc3cc(O)ccc3n2)c(O)c1` [Compound I-55, 3-hydroxy-4-(6-hydroxyquinolin-2-yl)benzoic acid], more than 7.00.
Still for that read-out and setting: to `O=C(O)c1ccc(-c2ccc3cc(O)ccc3n2)s1` [Compound I-15] belongs 5.00 to 6.00.
Regarding `CCCn1c(-c2ccc(O)cc2)ccc1-c1ccc(C(=O)O)cc1` [VII-37, 4-(5-(4-hydroxyphenyl)-1-propyl-1H-pyrrol-2-yl)benzoic acid], the pIC50 under setting [2] is more than 7.00.
As to `O=C(O)c1ncc(-c2ccc3cc(O)ccc3c2)cn1` [III-14], the pIC50 under setting [1] was 5.00 to 6.00.
In the case of `O=C(O)c1ccc(N2CCc3cc(O)ccc3C2=O)cc1` [VIII-4, 4-(6-hydroxy-1-oxo-3,4-dihydroisoquinolin-2(1H)-yl)benzoic acid], the pIC50 under setting [3] is more than 7.00.
As to `O=C(O)c1ccc(Oc2c(-c3ccc(O)cc3)oc3cc(O)ccc3c2=O)cc1` [Compound V-10, 4-(7-hydroxy-2-(4-hydroxyphenyl)-4-oxo-4H-chromen-3-yloxy)benzoic acid], the pIC50 under setting [1] was 5.00 to 6.00.
Same read-out and setting: to `CC(F)(F)c1oc2cc(O)ccc2c(=O)c1-c1ccc(C(=O)O)cc1` [IV-16] belongs more than 7.00; to `O=C(O)c1ccc(-c2cc(F)c3cc(O)ccc3c2)c(F)c1` [III-38, 3-fluoro-4-(4-fluoro-6-hydroxynaphthalen-2-yl)benzoic acid], more than 7.00.
For `CCOCCCn1c(-c2ccc(O)cc2)ccc1-c1ccc(C(=O)O)cc1` [VII-36, 4-(1-(3-ethoxypropyl)-5-(4-hydroxyphenyl)-1H-pyrrol-2-yl)benzoic acid], the pIC50 under setting [2] is more than 7.00.
With `O=C(O)c1ccc(-c2cnc(-c3ccc(O)cc3)s2)s1` [VII-16, 5-(2-(4-hydroxyphenyl)thiazol-5-yl)thiophene-2-carboxylic acid], under setting [2], the pIC50 is more than 7.00.

As a reminder, the pIC50 is the negative decadic logarithm of the IC50, by convention in mol/L.

(Values after patent publication US20140094465A1, “Compounds as S-Nitrosoglutathione Reductase Inhibitors” (N30 PHARMACEUTICALS, INC., priority 2011, published 2014).)
